In patent US20090215713A1, “Use of atp for the manufacture of a medicament for the prevention and treatment of oxidative stress and related conditions” (priority 2004, published 2009):
“Also recorded” adds a separate entry of the source.

Experiments:
[1] = ESR measurement of DMPO—OH spin adducts during Fenton chemistry; assay type: biochemical
Procedure: The effect of ATP on the formation or scavenging of hydroxyl radicals, generated by Fenton reagents was measured as DMPO—OH spin adducts in ESR spectra. The ESR studies were performed at room temperature using a Bruker EMX 1273 spectrometer equipped with an ER 4119HS high sensitivity cavity and 12 kW power supply. The following instrument conditions were used: scan range, 60 G; center magnetic field, 3490 G; modulation amplitude, 1.0 G; microwave frequency, 9.86 GHz; time constant, 40.96 ms, scan time, 20.48 ms; number of scans, 50. OH radicals were generated by the Fenton reaction, and 5,5-dimethyl-1-pyrroline N-oxide (DMPO) was used for trapping hydroxyl radicals. Fifty microliters of 10 mM H2O2, 50 μl of 250 mM DMPO, 50 μl milliQ, 50 μl milliQ (control) or sample, and 50 μl 5 mM FeSO4/5 mM EDTA were mixed, and then transferred to a capillary glass tube. After 2 minutes, DMPO—OH spin adducts were measured by ESR. Quantification of the spectra was performed by peak integration using the WIN-EPR spectrum manipulation program.
Electron spin resonance (ESR) studies were performed at room temperature using a Bruker EMX 1273 spectrometer equipped with an ER 4119HS high sensitivity cavity and 12 kW power supply. The following instrument conditions were used: scan range, 60 G; center magnetic field, 3490 G; modulation amplitude, 1.0 G; microwave frequency, 9.86 GHz; time constant, 40.96 ms, scan time, 20.48 ms; number of scans, 50. OH radicals were generated by the Fenton reaction, and 5,5-Dimethyl-1-pyrroline N-oxide (DMPO) was used for trapping hydroxyl radicals. Fifty microliters of 10 mM H2O2, 50 μl 250 mM DMPO, 50 μl milliQ, 50 μl milliQ (blanco) or sample and 50 μl 5 mM FeSO4/5 mM EDTA were mixed, transferred to a capillary glass tube and the DMPO—OH spin adducts were measured after 2 minutes by ESR. Quantification of the spectra (in arbitrary units) was performed by peak integration using the WIN-EPR spectrum manipulation program.

TNF-α = assay: LPS+PHA-induced TNF-α secretion in whole blood from healthy subjects (ELISA); assay type: cell-based, human; conditions: for effect of purinergic compound on LPS+PHA-induced TNF-α release: 300 μM, 24 h; for effect on inhibiting TNFα and stimulating IL-10 production: LPS-PHA stimulated whole blood, Experiment 4
Procedure: FIG. 7 Effect of ATP on LPS+PHA-induced TNF-α secretion in whole blood from healthy subjects. The whole blood was exposed to 10 μg/ml LPS and 1 μg/ml PHA with indicated concentrations of ATP for 24 h. The TNF-α released into the supernatants was analyzed using the ELISA method. Results are expressed in percentage, 100% being the TNF-α release under stimulation by LPS+PHA without ATP. […] Data are expressed as the mean values; error bars represent SEM. *, different from control (stimulation by LPS+PHA without ATP) (P<0.05).
FIG. 13 Effect of different purinergic compounds on LPS+PHA-induced TNF-α secretion in whole blood. The whole blood was exposed to 10 μg/ml LPS and 1 μg/ml PHA with the indicated purinergic compounds at the concentration of 300 μM for 24 h. The TNF-α released into the supernatant was analyzed using the ELISA method. Results are expressed in percentage, 100% being the TNF-α release under stimulation by LPS+PHA without addition of a purinergic compound (control). […] The TNF-α release induced by LPS+PHA from whole blood was not inhibited by UTP, UDP or CTP. Data are expressed as the mean values; error bars represent SEM.
Blood was collected from 8 healthy subjects in heparin containing vacutainer tubes. All incubations were performed in duplicate. ATP was dissolved in RPMI 1640 culture medium, at a final concentration of 1-300 μM, and blood pre-incubated with ATP at 5% CO2 at 37 DC for 30 min. After stimulation with LPS en PHA (10 and 1 μg/ml final concentration, respectively), the plates were incubated in 5% CO2 at 37° C. for 24 h. Cell-free supernatant fluids were then collected by centrifugation (6000 rpm, 10 min at 4° C.) and stored at −20° C. until tested for presence of cytokines. All cytokines were quantified by means of PeliKine Compact human ELISA kits (CLB/Sanquin, The Netherlands), based on appropriate and validated sets of monoclonal antibodies.
Whole blood was collected and stimulated with LPS+PHA as described for Experiment 2. ATP, dissolved in RPMI 1640 culture medium, was added to the blood at a final concentration of 1-1000 μM. The agonists were added in the same way as ATP, however their stock solutions are prepared in PBS and further diluted in medium. All incubations are performed in duplicate.

[2] = tested on: mice bearing colon tumour; conditions: cited from earlier work; for effect on host weight loss: daily intraperitoneal injections of 25 mmol/L for 10 days

| SMILES | effect of purinergic compound on LPS+PHA-induced TNF-α release (TNF-α) | effect on inhibiting TNFα and stimulating IL-10 production (TNF-α) | other results |
| --- | --- | --- | --- |
| Nc1ncnc2c1ncn2[C@@H]1O[C@H](COP(=O)(O)OP(=O)(O)O)[C@@H](O)[C@H]1O [ADP] | inhibited | – | effectiveness in preventing DMPO—OH formation relative to comparator ([1]; 0.1 mM-10 mM): slightly less effective; inhibition of the DMPO—OH spin adduct formation ([1]; highest concentration used (range 0.1 mM-10 mM)): ≈ 70% |
| Nc1ncnc2c1ncn2[C@@H]1O[C@H](COP(=O)(O)O)[C@@H](O)[C@H]1O [AMP] | inhibited | – | effect on hydroxyl radicals ([1]; 0.1, 0.3 and 1 mM): no significant effect; effect on hydroxyl radicals ([1]; 3 and 10 mM): reduction of hydroxyl radicals; also recorded: significant (P<0.05) reduction; effect on host weight loss [2]: significant inhibition |
| Nc1ccn([C@@H]2O[C@H](COP(=O)(O)OP(=O)(O)OP(=O)(O)O)[C@@H](O)[C@H]2O)c(=O)n1 [CTP] | not inhibited | little or no effect | – |
| O=c1ccn([C@@H]2O[C@H](COP(=O)(O)OP(=O)(O)O)[C@@H](O)[C@H]2O)c(=O)[nH]1 [UDP] | not inhibited | little or no effect | – |
| O=c1ccn([C@@H]2O[C@H](COP(=O)(O)OP(=O)(O)OP(=O)(O)O)[C@@H](O)[C@H]2O)c(=O)[nH]1 [UTP] | not inhibited | little or no effect | – |
| Nc1ncnc2nc[nH]c12 [adenine] | – | – | effect on DMPO—OH spin adduct formation / hydroxyl radicals ([1]; 1 mM): little or no effect; also recorded: no significant (P<0.05) effect |
| Nc1ncnc2c1ncn2[C@@H]1O[C@H](CO)[C@@H](O)[C@H]1O [adenosine] | least inhibition | – | inhibition of host weight loss of tumour-bearing animals ([2]; adenosine without phosphate): ineffective; effect on host weight loss [2]: significant inhibition |
